Test results as given in PubChem BioAssay AID1963976 (Molecular Pharmacology Branch, DTP, NCI, 2024).
One block for each molecule: values may come before it.

System: 435261-313-R-J1-PDC tumor spheroid viability
Assay: Anticancer human tumor 435261-313-R-J1-PDC patient-derived colon adenocarcinoma cell line growth inhibition [PI3K]
Details: spheroids with HUVEC and MSC; for IC50: curve of first compound; for viability, T/C: stronger effect = lower value
Method in brief: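 High-throughput combination screen: PI3K inhibitors crossed with targeted small molecules on complex spheroids of tumor cells, HUVEC and MSCs at 37 degrees C, 5% CO2. Top concentration was at or near clinical Cmax (otherwise 10 microM), with half-log decrements.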

[1] = second compound 0.00316 µM, first compound 0.0316 µM
[2] = second compound 0.00316 µM, first compound 0.1 µM
[3] = second compound 0.00316 µM, first compound 0.316 µM
[4] = second compound 0.00316 µM, first compound 1 µM
[5] = second compound 0.00316 µM, first compound 3.16 µM
[6] = second compound 0.00316 µM, first compound 10 µM
[7] = second compound 0.01 µM, first compound 0.0316 µM
[8] = second compound 0.01 µM, first compound 0.1 µM
[9] = second compound 0.01 µM, first compound 0.316 µM
[10] = second compound 0.01 µM, first compound 1 µM
[11] = second compound 0.01 µM, first compound 3.16 µM
[12] = second compound 0.01 µM, first compound 10 µM
[13] = second compound 0.0316 µM, first compound 0.0316 µM
[14] = second compound 0.0316 µM, first compound 0.1 µM
[15] = second compound 0.0316 µM, first compound 0.316 µM
[16] = second compound 0.0316 µM, first compound 1 µM
[17] = second compound 0.0316 µM, first compound 3.16 µM
[18] = second compound 0.0316 µM, first compound 10 µM
[19] = second compound 0.1 µM, first compound 0.0316 µM
[20] = second compound 0.1 µM, first compound 0.1 µM
[21] = second compound 0.1 µM, first compound 0.316 µM
[22] = second compound 0.1 µM, first compound 1 µM
[23] = second compound 0.1 µM, first compound 3.16 µM
[24] = second compound 0.1 µM, first compound 10 µM
[25] = second compound 0.316 µM, first compound 0.0316 µM
[26] = second compound 0.316 µM, first compound 0.1 µM
[27] = second compound 0.316 µM, first compound 0.316 µM
[28] = second compound 0.316 µM, first compound 1 µM
[29] = second compound 0.316 µM, first compound 3.16 µM
[30] = second compound 0.316 µM, first compound 10 µM
[31] = second compound 1 µM, first compound 0.0316 µM
[32] = second compound 1 µM, first compound 0.1 µM
[33] = second compound 1 µM, first compound 0.316 µM
[34] = second compound 1 µM, first compound 1 µM
[35] = second compound 1 µM, first compound 3.16 µM
[36] = second compound 1 µM, first compound 10 µM
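Further: spheroids exposed to compounds for 7 days.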

IC50 (second compound 0.00316 µM): 3730 nM
IC50 (second compound 0.01 µM): 2040 nM
IC50 (second compound 0.0316 µM): 1920 nM
IC50 (second compound 0.1 µM): 85.9 nM
IC50 (second compound 0.316 µM): < 31.6 nM
IC50 (second compound 1 µM): < 31.6 nM
Compound: C#Cc1c(F)ccc2cc(O)cc(-c3ncc4c(N5CC6CCC(C5)N6)nc(OCC56CCCN5CC(F)C6)nc4c3F)c12 (stereo not drawn) + CC(Nc1ccc2c(c1)OCCn1cc(N3C(=O)OCC3C(F)F)nc1-2)C(N)=O
viability, T/C [1]: 73.9%
viability, T/C [2]: 91.2%
viability, T/C [3]: 85.6%
viability, T/C [4]: 98.2%
viability, T/C [5]: 54.1%
viability, T/C [6]: 25.7%
viability, T/C [7]: 74.4%
viability, T/C [8]: 93.9%
viability, T/C [9]: 90.7%
viability, T/C [10]: 65.8%
viability, T/C [11]: 41.1%
viability, T/C [12]: 28.8%
viability, T/C [13]: 54.5%
viability, T/C [14]: 65.7%
viability, T/C [15]: 66.2%
viability, T/C [16]: 76.5%
viability, T/C [17]: 38.1%
viability, T/C [18]: 13.8%
viability, T/C [19]: 43.9%
viability, T/C [20]: 57%
viability, T/C [21]: 47.4%
viability, T/C [22]: 33.2%
viability, T/C [23]: 22.6%
viability, T/C [24]: 12.3%
viability, T/C [25]: 21.7%
viability, T/C [26]: 21.6%
viability, T/C [27]: 26.5%
viability, T/C [28]: 17.5%
viability, T/C [29]: 15.1%
viability, T/C [30]: 7.18%
viability, T/C [31]: 18.9%
viability, T/C [32]: 14.5%
viability, T/C [33]: 13.1%
viability, T/C [34]: 12%
viability, T/C [35]: 7.99%
viability, T/C [36]: 3.34%

IC50 (second compound 0.0316 µM): 737 nM
IC50 (second compound 0.1 µM): 416 nM
IC50 (second compound 0.316 µM): 362 nM
IC50 (second compound 1 µM): 424 nM
IC50 (second compound 3.16 µM): 254 nM
IC50 (second compound 10 µM): 68.5 nM
Compound: Cn1nccc1Nc1nccc(-c2ccn(C(CO)c3ccc(Cl)c(F)c3)c(=O)c2)n1 (stereo not drawn) + CC(Nc1ncnc2nc[nH]c12)c1cc2cccc(Cl)c2c(=O)n1-c1ccccc1
viability, T/C [13]: 83.5%
viability, T/C [14]: 64.9%
viability, T/C [15]: 84%
viability, T/C [16]: 40.1%
viability, T/C [17]: 28.7%
viability, T/C [18]: 24.9%
viability, T/C [19]: 75.4%
viability, T/C [20]: 73.4%
viability, T/C [21]: 46.5%
viability, T/C [22]: 43.6%
viability, T/C [23]: 25.8%
viability, T/C [24]: 20.6%
viability, T/C [25]: 77.9%
viability, T/C [26]: 62.7%
viability, T/C [27]: 53.6%
viability, T/C [28]: 38%
viability, T/C [29]: 28.4%
viability, T/C [30]: 19.5%
viability, T/C [31]: 71.5%
viability, T/C [32]: 66.9%
viability, T/C [33]: 46.3%
viability, T/C [34]: 48.1%
viability, T/C [35]: 26%
viability, T/C [36]: 19.2%
viability, T/C (second compound 3.16 µM, first compound 0.0316 µM): 77.1%
viability, T/C (second compound 3.16 µM, first compound 0.1 µM): 67.7%
viability, T/C (second compound 3.16 µM, first compound 0.316 µM): 42.1%
viability, T/C (second compound 3.16 µM, first compound 1 µM): 32.8%
viability, T/C (second compound 3.16 µM, first compound 3.16 µM): 23.5%
viability, T/C (second compound 3.16 µM, first compound 10 µM): 12.6%
viability, T/C (second compound 10 µM, first compound 0.0316 µM): 58.1%
viability, T/C (second compound 10 µM, first compound 0.1 µM): 46.8%
viability, T/C (second compound 10 µM, first compound 0.316 µM): 28.8%
viability, T/C (second compound 10 µM, first compound 1 µM): 18.3%
viability, T/C (second compound 10 µM, first compound 3.16 µM): 16.7%
viability, T/C (second compound 10 µM, first compound 10 µM): 9.7%

IC50 (second compound 0.00316 µM): > 10000 nM
IC50 (second compound 0.01 µM): > 10000 nM
IC50 (second compound 0.0316 µM): > 10000 nM
IC50 (second compound 0.1 µM): < 31.6 nM
IC50 (second compound 0.316 µM): < 31.6 nM
IC50 (second compound 1 µM): < 31.6 nM
Compound: CC(Cn1ccc(-c2ccc(C#N)c(Cl)c2)n1)NC(=O)c1cc(C(C)O)[nH]n1 (stereo not drawn) + CC(Nc1ccc2c(c1)OCCn1cc(N3C(=O)OCC3C(F)F)nc1-2)C(N)=O
viability, T/C [1]: 75.6%
viability, T/C [2]: 79.1%
viability, T/C [3]: 93.8%
viability, T/C [4]: 106%
viability, T/C [5]: 94.3%
viability, T/C [6]: 106%
viability, T/C [7]: 53.1%
viability, T/C [8]: 90.6%
viability, T/C [9]: 105%
viability, T/C [10]: 106%
viability, T/C [11]: 82.4%
viability, T/C [12]: 95.1%
viability, T/C [13]: 74.5%
viability, T/C [14]: 78.5%
viability, T/C [15]: 93%
viability, T/C [16]: 77.4%
viability, T/C [17]: 95.9%
viability, T/C [18]: 86.2%
viability, T/C [19]: 41.5%
viability, T/C [20]: 54.3%
viability, T/C [21]: 40.1%
viability, T/C [22]: 44%
viability, T/C [23]: 46.2%
viability, T/C [24]: 53.8%
viability, T/C [25]: 28.6%
viability, T/C [26]: 24.6%
viability, T/C [27]: 20.2%
viability, T/C [28]: 21.7%
viability, T/C [29]: 25.9%
viability, T/C [30]: 27.5%
viability, T/C [31]: 17.1%
viability, T/C [32]: 17%
viability, T/C [33]: 18.3%
viability, T/C [34]: 19.2%
viability, T/C [35]: 16.9%
viability, T/C [36]: 20.5%

IC50 (second compound 0.00316 µM): 8990 nM
IC50 (second compound 0.01 µM): < 31.6 nM
IC50 (second compound 0.0316 µM): < 31.6 nM
IC50 (second compound 0.1 µM): < 31.6 nM
IC50 (second compound 0.316 µM): < 31.6 nM
IC50 (second compound 1 µM): < 31.6 nM
Compound: CNC(=O)c1ccc(N2C(=S)N(c3ccc(C#N)c(C(F)(F)F)c3)C(=O)C2(C)C)cc1F + COc1c(OCCCN2CCOCC2)ccc2c3n(c(=NC(=O)c4cnc(N)nc4)nc12)CCN3
viability, T/C [1]: 71.2%
viability, T/C [2]: 80.3%
viability, T/C [3]: 40.8%
viability, T/C [4]: 63.6%
viability, T/C [5]: 66.3%
viability, T/C [6]: 42.7%
viability, T/C [7]: 33.4%
viability, T/C [8]: 46.7%
viability, T/C [9]: 51.3%
viability, T/C [10]: 48.2%
viability, T/C [11]: 45.4%
viability, T/C [12]: 39.7%
viability, T/C [13]: 33.8%
viability, T/C [14]: 29.1%
viability, T/C [15]: 29.9%
viability, T/C [16]: 27.3%
viability, T/C [17]: 23%
viability, T/C [18]: 22.4%
viability, T/C [19]: 16.1%
viability, T/C [20]: 13.9%
viability, T/C [21]: 14.9%
viability, T/C [22]: 15%
viability, T/C [23]: 15.4%
viability, T/C [24]: 15.3%
viability, T/C [25]: 8.96%
viability, T/C [26]: 8.69%
viability, T/C [27]: 7.55%
viability, T/C [28]: 9.53%
viability, T/C [29]: 7.67%
viability, T/C [30]: 8.88%
viability, T/C [31]: 4.12%
viability, T/C [32]: 4.26%
viability, T/C [33]: 4.87%
viability, T/C [34]: 4.38%
viability, T/C [35]: 5.02%
viability, T/C [36]: 5.37%
